{"source": "patent US11998005B2", "about": "“Herbicidal formulations comprising glyphosate and COTE-based adjuvants” (NOURYON CHEMICALS INTERNATIONAL B.V., priority 2018, dated 2024)", "test_system": "wheat representing narrow leaf weeds", "assay": "Bioefficacy, greenhouse spray test with IPA glyphosate + adjuvant", "assay_type": "in vivo", "settings": "compared to untreated plant", "experimental": "All bioefficacy testing was done at University of Georgia's Agricultural Experiment Station in Griffin, Georgia Concentrates were first formulated by blending IPA glyphosate salt with the desired amount surfactant and water resulting in a 20 wt % ae and a 6.49% surfactant solution. Prior to spraying two sets of diluted solutions were prepared by dissolving 16 g of concentrates into 984 grams of tap water and a second set by dissolving 500 g of the above dilute solution into 500 g of tap water. […] All of the plants were placed in a temperature controlled greenhouse and measured for growth (or lack of) each week for a period of 4 weeks. The data is reported as % Growth Control compared to untreated plant. The higher the value the better the bioefficacy. When the last measurement was taken at 4 weeks the plants are cut at the roots and the “fresh” weight measured.\nTesting in the foregoing manner yielded the following results: • Plant Species—Wheat • IPA-glyphosate application rate—300 g a.e./H\n• Plant Species—Wheat • IPA-glyphosate application rate—600 g a.e./H", "data": [{"compound": "O=C(O)CNCP(=O)(O)O", "note": "[IPA-Glyphosate only, N-phosphonomethylglycine]", "values": [{"measurement": "% Growth Control", "setting": "IPA-glyphosate application rate 300 g a.e./H", "result": 31, "unit": "%"}, {"measurement": "% Growth Control", "setting": "IPA-glyphosate application rate 600 g a.e./H", "result": 72, "unit": "%"}]}]}
